In patent US12280072B2, “Oligosaccharide compound for inhibiting intrinsic coagulation factor X-enzyme complex, and preparation method therefor and uses thereof” (Jiuzhitang Co., Ltd., priority 2017, dated 2025):
Like-named read-outs stand apart in the source and are kept apart here.

Assays:
Format in all cases: biochemical
intrinsic factor Xase = molecular target: T1, intrinsic factor Xase (Homo sapiens, UniProt P00740); assay: Xase inhibitory activity assay
T1 construct: 60 nM FIXa; purchased
Experimental: Xase inhibitory activity assay: Detection was performed according to kit instructions and literature methods by combining the Factor VIII and […]. Specifically, to each well of a 96-well plate, 30 μL of test solution, control solution, or Tris-HCl buffer (negative control) was added, and 30 μl of FVIII (2 IU/ml), 30 μl of R2 (60 nM FIXa, containing FIIa, PC/PS, Ca^2+) were sequentially added, mixed by shaking the plate, incubated at 37° C. for 2 min; and then 30 μL of R1 (50 nM FX, containing direct thrombin inhibitor) was added, mixed by shaking the plate, incubated at 37° C. for 1 min; and then 30 μL of R3 (FXa chromogenic substrate SXa-11, about 8.4 mM) was added. The absorbance at 405 nm (OD405) was detected with a microplate reader, continuously measuring for 7.5 min at a interval of 30 s. The Xase activity and IC50 value of Xase inhibition of the test sample were calculated based on the OD405 change value.
(§1) Data processing: The average value of OD405 detected by the duplicated well was used as the detection value of the test sample and the reference of each concentration, and the slope of the linear fit between the detected value to the time value (the change rate of the absorbance value OD405/min) indicated enzymatic activity of coagulation factor. Taking the clotting factor activity of the negative control well as 100%, coagulation factor activity (percentage) in the presence of the test sample was calculated. The coagulation factor activity in the presence of the test sample was plotted against the concentration of the test sample, and fitted according to the following formula, to calculate the IC50 value: B=(IC50)^n/{(IC50)^n+[I]^n}
(§2) in the formula, B is the coagulation factor activity (percentage) in the presence of the test sample, [I] is the concentration of the test sample, IC50 is the half inhibitory concentration (concentration of the test sample required to inhibit 50% of the activity), and n is the Hill coefficient. • (4) Effect on surface activation and platelet activity: […]

human-controlled plasma [1] = assay: Anticoagulant activity assay: PT clotting time
Experimental: (§3) 8.2 Methods • (1) Preparation of sample solution: Oligosaccharide compounds A1˜A8, B1˜B11 and oligosaccharide mixtures C1, D1, D2 were all dissolved in Tris-HCl buffer and diluted to the desired series of solubility. • (2) Anticoagulant activity assay: 90 μL of human-controlled plasma was added to the sample or 10 μL of the control solution, and then the clotting time (APTT and PT) was detected by the MC-4000 coagulometer according to the method described in the APTT and PT kit instructions. • (3) Coagulation factor inhibitory activity analysis: […]

human-controlled plasma [2] = assay: Anticoagulant activity assay: APTT clotting time
Experimental: as §3

FIIa (Homo sapiens) = molecular target: T2, FIIa (Homo sapiens); assay: AT-dependent IIa inhibitory activity assay
T2 construct: antithrombin (i.e., active coagulation factor IIa); purchased
Experimental: AT-dependent IIa inhibitory activity assay: Heparin Anti-FIIa kit was used for detection. To a 96-well plate, 30 μL of sample, control solution or Tris-HCl buffer (negative control) was added, and then 30 μL of 1 IU/mL AT solution was added, mixed well by shaking the plate and incubated at 37° C. for 2 min; 30 μL of 24 IU/mL FIIa solution was added, mixed well by shaking the plate and incubated for 2 min at 37° C., and then 30 μL of pre-warmed 1.25 mM FIIa specific chromogenic substrate CS-01 (38) was added, mixed well by shaking the plate. The OD405 was detected by a microplate reader and the IC50 value of FIIa inhibition of each sample was calculated.
as §1, §2

plasma = assay: TT (thrombin time) clotting time
FXa (Homo sapiens) = molecular target: T3, FXa (Homo sapiens); assay: AT-dependent Xa inhibitory activity assay
T3 construct: 8 μg/mL FXa solution; purchased
Experimental: AT-dependent Xa inhibitory activity assay: Heparin […] kit was used for detection. To a 96-well plate, 30 μL of sample, control solution or Tris-HCl buffer (negative control) was added, then 30 μL of 1 IU/mL AT solution was added, mixed well and incubated at 37° C. for 1 min; and than 30 μL of 8 μg/mL FXa solution was added, mixed well and incubated at 37° C. for 1 min, then 30 μL of pre-warmed 1.25 mM Xa chromogenic substrate SXa-11 was added. OD405 was detected by a microplate reader.
as §1, §2

[3] = read-out: Drug concentration required to inhibit 50% of coagulation factor activity (IC50, ng/mL) Xase (converted)
[4] = in presence of AT; read-out: Drug concentration required to inhibit 50% of coagulation factor activity (IC50, ng/mL) Ha (AT)
[5] = in presence of AT; read-out: Drug concentration required to inhibit 50% of coagulation factor activity (IC50, ng/mL) Xa (AT)

T2 sequence (P01008 33-464): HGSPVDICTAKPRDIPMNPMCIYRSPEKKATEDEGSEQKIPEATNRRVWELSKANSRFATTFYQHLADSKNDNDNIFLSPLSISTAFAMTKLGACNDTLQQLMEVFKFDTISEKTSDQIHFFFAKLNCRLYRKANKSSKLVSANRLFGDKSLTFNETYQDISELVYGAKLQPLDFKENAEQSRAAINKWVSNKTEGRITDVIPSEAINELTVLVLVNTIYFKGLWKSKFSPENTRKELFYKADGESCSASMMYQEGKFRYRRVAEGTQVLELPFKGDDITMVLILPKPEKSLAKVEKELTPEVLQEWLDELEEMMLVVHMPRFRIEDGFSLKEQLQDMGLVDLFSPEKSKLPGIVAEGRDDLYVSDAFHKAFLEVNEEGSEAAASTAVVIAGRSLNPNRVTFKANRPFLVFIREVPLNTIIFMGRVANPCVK
T3 sequence (P01008 33-464): as above
T1 sequence (P00740 47-191 limits assumed): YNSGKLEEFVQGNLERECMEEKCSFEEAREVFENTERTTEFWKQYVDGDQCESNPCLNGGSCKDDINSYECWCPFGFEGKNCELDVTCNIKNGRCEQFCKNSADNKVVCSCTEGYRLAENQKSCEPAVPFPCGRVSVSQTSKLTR
T1 sequence (P00740 227-461 limits assumed): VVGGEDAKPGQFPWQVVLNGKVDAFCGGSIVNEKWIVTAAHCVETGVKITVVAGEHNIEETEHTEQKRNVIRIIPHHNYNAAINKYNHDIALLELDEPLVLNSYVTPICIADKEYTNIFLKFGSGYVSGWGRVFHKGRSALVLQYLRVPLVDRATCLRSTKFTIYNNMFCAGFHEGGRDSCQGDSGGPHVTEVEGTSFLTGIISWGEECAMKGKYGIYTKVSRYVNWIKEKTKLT

SMILES: COC(=O)C1=CC(OC2OC(C)C(OS(=O)(=O)O)C(O)C2OS(=O)(=O)O)C(O)C(OC2C(NC(C)=O)C(OC3C(C(=O)OC)OC(OC4C(NC(C)=O)C(OC5C(C(=O)OC)OC(OCc6ccccc6)C(O)C5OC5OC(C)C(OS(=O)(=O)O)C(O)C5OS(=O)(=O)O)OC(COS(=O)(=O)O)C4OS(=O)(=O)O)C(O)C3OC3OC(C)C(OS(=O)(=O)O)C(O)C3OS(=O)(=O)O)OC(COS(=O)(=O)O)C2OS(=O)(=O)O)O1 [Compound B10, L-Fuc2S4S-(α1,3)-L-6-Methyl-ΔUA-(α1,3)-D-GaNAc4S6S-(β1,4)-[L-Fuc2S4S-(α1,3)]-D-6-Methyl-ΔUA-GlcA-(β1,3)-D-GalNAc4S6S-(β1,4)-[L-Fuc2S4S-(α1,3)]-D-O-1-Benzyl-6-Methyl-GlcA]
- IC50 (intrinsic factor Xase; [3]): 26.7 nM
- Drug concentration required for multiplication of coagulation time (μg/mL) PT (human-controlled plasma [1]): # (>128 μg/mL)
- Drug concentration required for multiplication of coagulation time (μg/mL) APTT (human-controlled plasma [2]): 7.9 µg/mL
- IC50 (FIIa (Homo sapiens); [4]): > 2170 nM
- Drug concentration required for multiplication of coagulation time (μg/mL) TT (plasma): # (>128 μg/mL)
- IC50 (FXa (Homo sapiens); [5]): > 2170 nM

SMILES: CC(=O)NC1C(OC2C(C(=O)O)OC(OC3C(NC(C)=O)C(OC4C(C(=O)O)OC(OCc5ccccc5)C(O)C4OC4OC(C)C(OS(=O)(=O)O)C(O)C4OS(=O)(=O)O)OC(COS(=O)(=O)O)C3OS(=O)(=O)O)C(O)C2OC2OC(C)C(OS(=O)(=O)O)C(O)C2OS(=O)(=O)O)OC(COS(=O)(=O)O)C(OS(=O)(=O)O)C1OC1OC(C(=O)O)=CC(OC2OC(C)C(OS(=O)(=O)O)C(O)C2OS(=O)(=O)O)C1O [Compound B9, L-Fuc2S4S-(α1,3)-L-ΔUA-(α1,3)-D-GaNAc4S6S-(D1,4)-[L-Fuc2S4S-(α1,3)]-D-GlcA-(β1,3)-D-GalNAc4S6S-(β1,4)-[L-Fuc2S4S-(α1,3)]-D-1-Benzyl-GlcA-ol]
- IC50 (intrinsic factor Xase; [3]): 26.3 nM
- Drug concentration required for multiplication of coagulation time (μg/mL) PT (human-controlled plasma [1]): # (>128 μg/mL)
- Drug concentration required for multiplication of coagulation time (μg/mL) APTT (human-controlled plasma [2]): 7.6 µg/mL
- IC50 (FIIa (Homo sapiens); [4]): > 2210 nM
- Drug concentration required for multiplication of coagulation time (μg/mL) TT (plasma): # (>128 μg/mL)
- IC50 (FXa (Homo sapiens); [5]): > 2210 nM

SMILES: CC(=O)NC1C(OC2C(C(=O)O)OC(OC3C(NC(C)=O)C(OC4C(C(=O)O)OC(OC5C(NC(C)=O)C(OC6C(C(=O)O)OC(OC7C(NC(C)=O)C(OC(C(O)C(=O)O)C(OC8OC(C)C(OS(=O)(=O)O)C(OS(=O)(=O)O)C8O)C(O)CO)OC(COS(=O)(=O)O)C7OS(=O)(=O)O)C(O)C6OC6OC(C)C(OS(=O)(=O)O)C(OS(=O)(=O)O)C6O)OC(COS(=O)(=O)O)C5OS(=O)(=O)O)C(O)C4OC4OC(C)C(OS(=O)(=O)O)C(OS(=O)(=O)O)C4O)OC(COS(=O)(=O)O)C3OS(=O)(=O)O)C(O)C2OC2OC(C)C(OS(=O)(=O)O)C(OS(=O)(=O)O)C2O)OC(COS(=O)(=O)O)C(OS(=O)(=O)O)C1OC1OC(C(=O)O)=CC(OC2OC(C)C(OS(=O)(=O)O)C(OS(=O)(=O)O)C2O)C1O [Compound B4, L-Fuc3S4S-(α1,3)-L-ΔUA-(α1,3)-{D-GalNAc4S6S-(β1,4)-[L-Fuc3S4S-(α1,3)]-D-GlcA-(β1,3)}˜-D-GalNAc4S6S-(β1,4)-[L-Fuc3S4S-(α1,3)]-D-GlcA-ol]
- IC50 (intrinsic factor Xase; read-out: Drug concentration required to inhibit 50% of coagulation factor activity (IC50, ng/mL) Xase): 5.33 nM
- Drug concentration required for multiplication of coagulation time (μg/mL) PT (human-controlled plasma [1]): # (>128 μg/mL)
- Drug concentration required for multiplication of coagulation time (μg/mL) APTT (human-controlled plasma [2]): 4.5 µg/mL
- IC50 (FIIa (Homo sapiens); read-out: Drug concentration required to inhibit 50% of coagulation factor activity (IC50, ng/mL) Ha (AT); in presence of AT): > 1290 nM
- Drug concentration required for multiplication of coagulation time (μg/mL) TT (plasma): # (>128 μg/mL)
- IC50 (FXa (Homo sapiens); read-out: Drug concentration required to inhibit 50% of coagulation factor activity (IC50, ng/mL) Xa (AT); in presence of AT): > 1290 nM
